Target: apamine binding sites (apamine-sensitive potassium channels), bovine cerebral membrane
Experiment: Binding of 125I-apamine to bovine cerebral membrane
Details: 30 pM 125I-apamine, bovine (calf) hippocampus membranes, 200 μg membrane protein, 60 min on ice
Method: The compounds according to the invention are ligands for apamine-sensitive potassium channels. This can be shown by studying the affinity for apamine binding sites, e.g. in bovine cerebral membranes.
1) Binding of^125 I-apamine to bovine cerebral membrane
Calf brains were obtained from the local abattoir. The hippocampus was prepared on ice and a membrane suspension was made up by homogenization twice in buffer (100 mM Tris-HCl, KCl 5 mM, pH 7.4) and centrifugation at 43,000×g. In a total volume of 500 μl, the incubation mixture contained 200 μg of membrane protein, 30 pM ^125 I-apamine and test substances in the concentration range 1×10^-9 to 1×10^-4 M. The non-specific binding of ^125 I-apamine was determined in the presence of 1×10^-7 M unlabelled apamine.
After preincubation for 30 rain at room temperature (test substances and membrane homogenate), the samples were placed on ice for 10 min before the radioligand was added. The main incubation time was 60 min on ice. When the reaction time had elapsed, an excess of ice-cooled incubation buffer was added to each sample and the mixture was filtered with suction through cellulose acetate/nitrate membrane filters. The amount of bound ^125 I-apamine was measured with a gamma counter.

NC(=O)C1CCCN(c2nc(N3CCC(CNc4nc(N5CCCC5)nc5ccccc45)CC3)nc3ccccc23)C1 (stereo not shown) [Example 5]
Ki: 150 nM

Reference: patent US5739127A, “2,4'-bridged bis-2,4-diaminoquinazolines” (Bayer Aktiengesellschaft, priority 1996, dated 1998)
